# Data from patent US8637038B2, “Methods for inhibiting allograft rejection” (Rigel Pharmaceuticals, Inc., priority 2011, dated 2014).
# Legend:
# Format in all cases: in vivo, rat
# [1] = tested on: Lew recipients of heterotopic BN heart transplants; test: Five-day heart allograft study: H+E histology, ISHLT rejection classification; details: HD (Compound I 60 mg/kg BID, Compound III 20 mg/kg BID, Tac 4 mg/kg QD); five days after transplantation
# Source text: Male Brown Norway (BN) and Lewis (Lew) rats weighing 350 g were purchased from Harlan (Indianapolis, Ind.) and were housed under conventional conditions. All animals were fed standard rat chow and water ad libitum and received humane care in compliance with the Principles of Laboratory Animal Care formulated by the National Society for Medical Research and the Guide for the care and Use of Laboratory Animals published by the National Institutes of Health (National Institutes of Health publication No. 85-23, revised 1985). Allogeneic (BN-to-Lew) and syngeneic (Lew-to-Lew) heterotopic heart transplantations were performed as described previously (Ono et al., J. Thorac. Cardiovasc. Surg. 57:225-229, 1969). In brief, rats were anaesthetized using 2% isoflurane. The donor received an intravenous bolus of 500 I.U. heparin. Cardiac arrest was achieved using 20 ml Bretschneider solution (Custodiol, Dr. F. Koehler Chemie, Bensheim, Germany). […] Heart-beating score was assessed directly after transplantation for each animal from score 0 (no palpable contraction) to 4 (strong and regular contraction). Only animals with beating scores of 4 were included into the study. Compound I and Compound III were provided by Rigel (South San Francisco, Calif.) and Tacrolimus was provided by Astellas (Munich, Germany). All drugs were administrated orally each in two different concentrations: Compound I LD (15 mg/kg BID; n=6) and HD (60 mg/kg BID; n=6); […] Administration of all drugs was performed every day at the same time points. Tacrolimus was applied only once a day (QD) every 24 hours. During administration of Compound I (BID) and Compound III (BID) a 12 hour pause was kept in between each drug application. Lew recipients of heterotopic BN heart transplants were randomly assigned to their group. […] An untreated syngeneic transplant group Lew-Lew was generated as control. Grafts were recovered five days after transplantation and fixed in 4% paraformaldehyde (Science Services, Munich, Germany), dehydrated and embedded in paraffin. […] Waldeck, Carl Roth GmbH, Munster, Germany) and examined by standard light microscopy. The extent of acute cardiac graft rejection in H+E staining was examined by an experienced pathologist according to the 2004 ISHLT working formulation (Stewart et al., J. Heart Lung Transplant. 24:1710-1720, 2005).
# [2] = tested on: Lew recipients of heterotopic BN heart transplants; test: Five-day heart allograft study: donor-specific IgM antibodies by flow cytometry; details: LD and HD groups; five days; p<0.001
# Method: (§1) Compound I and Compound III were provided by Rigel (South San Francisco, Calif.) and Tacrolimus was provided by Astellas (Munich, Germany). All drugs were administrated orally each in two different concentrations: Compound I LD (15 mg/kg BID; n=6) and HD (60 mg/kg BID; n=6); Compound III LD (5 mg/kg BID; n=6) and HD (20 mg/kg BID; n=6); Tac LD (1 mg/kg QD; n=6) and HD (4 mg/kg QD; n=6). Administration of all drugs was performed every day at the same time points. Tacrolimus was applied only once a day (QD) every 24 hours. During administration of Compound I (BID) and Compound III (BID) a 12 hour pause was kept in between each drug application.
# (§2) Lew recipients of heterotopic BN heart transplants were randomly assigned to their group. Animals were either left untreated (groups 1 and 2; see Table 1,5-day study) or received their group specific medication (groups 3-8; see Table 1,5-day study) by oral application. An untreated syngeneic transplant group Lew-Lew was generated as control.
# Donor splenocytes were isolated and erythrocytes were lysed using the ACK buffer (Lonza, Walkersville, Md.). Sera from recipient rats were decomplemented and equal amounts of sera and splenocyte suspensions (5×10^6 cells/ml) were incubated for 30 minutes at room temperature. IgM antibodies were stained by incubation of the cells with a conjugated mouse antibody specific for the Fc-portion of rat IgM (Monoclonal Anti-rat IGM, Clone RTM-32, Sigma) followed by incubation with a 488-conjugated secondary antibody (Invitrogen). Cells were washed with PBS, fixed with 2% paraformaldehyde (Science Services), and analyzed on a FACSCalibur™ system (BD Biosciences). Fluorescence data were expressed as mean fluorescence intensity (MFI) using Flowjo software (Tree Star, Inc., Ashland, Oreg.).
# [3] = tested on: BN-to-Lew heterotopic heart transplantations; test: Graft survival study after 10-day treatment, with combination index; details: no medication 7±0 days
# Source text: Male Brown Norway (BN) and Lewis (Lew) rats weighing 350 g were purchased from Harlan (Indianapolis, Ind.) and were housed under conventional conditions. All animals were fed standard rat chow and water ad libitum and received humane care in compliance with the Principles of Laboratory Animal Care formulated by the National Society for Medical Research and the Guide for the care and Use of Laboratory Animals published by the National Institutes of Health (National Institutes of Health publication No. 85-23, revised 1985). Allogeneic (BN-to-Lew) and syngeneic (Lew-to-Lew) heterotopic heart transplantations were performed as described previously (Ono et al., J. Thorac. Cardiovasc. Surg. 57:225-229, 1969). In brief, rats were anaesthetized using 2% isoflurane. The donor received an intravenous bolus of 500 I.U. heparin. Cardiac arrest was achieved using 20 ml Bretschneider solution (Custodiol, Dr. F. Koehler Chemie, Bensheim, Germany). […] Heart-beating score was assessed directly after transplantation for each animal from score 0 (no palpable contraction) to 4 (strong and regular contraction). Only animals with beating scores of 4 were included into the study.
# as §1
# BN-to-Lew heterotopic heart transplantations were performed. Recipient animals were treated for 10 days according to Table 1 (10 day survival study group) and graft survival was monitored by daily palpation of the beating donor heart through the abdominal wall. Scoring was assessed according to heart-beating score of 0 to 4. The time of rejection was defined as the last day of palpable cardiac contractions and graft rejection was confirmed by laparotomy.
# The median-effect principle of Chou (in Synergism and Antagonism in Chemotherapy, Chou and Rideout, eds, pp. 61-102, Academic Press, 1991) is based on the premise that the effect of each agent is related to its dose and, therefore, can be calculated using the following equation: (fa/fu)=(D/Dm)m, where fa and fu represent the fractions of the system that are affected (% inhibition or rather days of survival beyond controls) and unaffected (1−fa), respectively, by the drug at dose D. Full protection (fa=1) is defined as at least a 28-day survival of allografts. Dm is the dose required for 50% inhibition (ED50), the median effect (m) is a coefficient that describes the sigmoidicy of the dose-effect curve. The interaction between two drugs is assessed by the combination index (CI) equation for the doses to achieve x % inhibition:
# [formula] for the mutually nonexclusive case, where each drug has a different mode of action. A computer software program was used to determine the dose-effect parameters (Dm, m, and r), and the CI values (CalcuSyn, Biosoft, Cambridge, United Kingdom).
# Graft survival was monitored by daily palpation of the beating donor heart through the abdominal wall and treatment of animals was stopped after 10 days.
# [4] = tested on: Lew recipients of heterotopic BN heart transplants; test: Five-day heart allograft study: ELISPOT (IFN-γ, IL-4, IL-17) of recipient splenocytes; details: LD groups (Compound I 15 mg/kg BID, Compound III 5 mg/kg BID, Tac 1 mg/kg QD); five days
# Method: as §1, §2
# Lymphocytes were isolated from freshly harvested spleens. ELISPOT assays with 1×10^7/ml mitomycin-inhibited BN splenocytes and 1×10^6/ml Lew splenocytes were performed according to the manufacturer's protocol (BD Biosciences). 96-well plates were coated with IFN-γ, IL-17, and IL-4 to assess T helper cell (Th)1-, Th17-, and Th2-responses independently. All assays were performed in quadruplicates. Spots were automatically enumerated using an ELISPOT plate reader (CTL, Cincinnati, Ohio) for scanning and analyzing.
smiles,measurement,setting,value
"C=CC[C@@H]1/C=C(\C)C[C@H](C)C[C@H](OC)[C@H]2O[C@@](O)(C(=O)C(=O)N3CCCC[C@H]3C(=O)O[C@H](/C(C)=C/[C@@H]3CC[C@@H](O)[C@H](OC)C3)[C@H](C)[C@@H](O)CC1=O)[C@H](C)C[C@@H]2OC [Tac, Tacrolimus, reference compound]",hearts with ISHLT score of 1,[1],67%
same,hearts with ISHLT score of 2,[1],33%
same,donor-specific IgM antibodies (DSA) vs. no medication,[2],significant suppression
same,"graft survival, mean","[3]; HD (Compound I 60 mg/kg BID, Compound III 20 mg/kg BID, Tac 4 mg/kg QD) for 10 days",20 ± 3 days
same,"graft survival, mean","[3]; LD (Compound I 15 mg/kg BID, Compound III 5 mg/kg BID, Tac 1 mg/kg QD) for 10 days",13 ± 2 days
same,IFN-γ spot frequency (ELISPOT) compared to no medication group,[4],no significant reduction
